Results as given in PMC12693701, “Glucosinolate-Derived Metabolites from Barbarea vulgaris (Brassicaceae): Evaluation of Antimicrobial, Antioxidant, and Anti-Inflammatory Potentials” (Molecules, 2025).
Values after ≈ are worked out from the molar mass of the structure shown.

Tested on: B. subtilis ATCC 6633
Assay: Microdilution MIC/MMC with resazurin
Format: cell-based, Bacillus subtilis
Conditions: B. subtilis ATCC 6633; compounds 1–8
Description: (§1) The antimicrobial activity was evaluated against 15 microorganisms. This included 11 bacterial strains: four standard strains (Staphylococcus aureus ATCC 25923, Bacillus subtilis ATCC 6633, Bacillus pumilus NCTC 8241, and Escherichia coli ATCC 25922) and six clinical or environmental isolates (Staphylococcus aureus, Escherichia coli, Bacillus cereus, Proteus mirabilis, Salmonella enterica, and Klebsiella pneumoniae). One probiotic strain, Bifidobacterium animalis subsp. lactis was tested. In addition, four fungal strains, Candida albicans ATCC 10231, Trichoderma viride ATCC 13233, Aspergillus flavus ATCC 9170, and Fusarium solani ATCC 11712 were tested. The bacterial strains were kept in glycerol stock at −80 °C and the fungal strains in paraffin oil stock at 4 °C.
(§2) Bacterial and yeast suspensions were prepared using the direct colony method, as previously described by Andrews. The turbidity of the initial suspensions was adjusted to match the 0.5 McFarland standard using a densitometer (Biosan, Riga, Latvia), corresponding to approximately 10^8 colony-forming units (CFU)/mL for bacterial cells and 10^6 CFU/mL for yeast cells. Subsequently, 1:100 dilutions of the initial suspensions were prepared in sterile 0.85% saline. Fungal spore suspensions were obtained by gently harvesting spores from agar slopes containing mature mycelial growth. The collected spore suspensions were then diluted 1:1000 in sterile 0.85% saline prior to use.
(§3) Antimicrobial activity was evaluated by determining the minimum inhibitory concentration (MIC) and minimum microbicidal concentration (MMC) using the microdilution plate method with resazurin as an indicator [28]. In the 96-well plates, 100 μL of Mueller–Hinton broth (Torlak, Belgrade, Serbia) for bacterial testing and Sabouraud broth (Torlak, Belgrade, Serbia) for fungal testing were dispensed into each well. The compounds under investigation were initially dissolved in a 10% dimethyl sulfoxide (DMSO) solution, followed by dilution in sterile distilled water, resulting in a working compound solution containing 1% DMSO. A 100 μL aliquot of the stock solution of the tested compound was added to the first row, and twofold serial dilutions were then carried out using a multichannel pipette. The resulting concentration range was from 5 to 0.039 mg/mL. The inoculated microtiter plates were incubated at 37 °C for 24 h for bacteria, at 28 °C for 48 h for yeasts, and at 28 °C for 72 h for molds.
(§4) Each test also included growth control and sterility control. All tests were conducted in duplicate. MIC was defined as the lowest concentration of tested compounds that prevented resazurin color change from blue to pink. For molds, MIC values of the tested compound were determined as the lowest concentration that inhibited visible mycelia growth. MMC was determined by inoculation of the nutrient agar medium by plating […] of samples from wells, where no indicator color change was recorded. At the end of the incubation period, the lowest concentration with no growth (no colony) was defined as MMC.
(§5) Doxycycline, ampicillin and amphotericin B (- Sigma-Aldrich, St. Louis, MO, USA) and ketoconazole (Hemofarm A.D., Vršac, Serbia) were dissolved in a nutrient liquid medium. Doxycycline is a broad-spectrum antibiotic effective against both aerobic and anaerobic Gram-positive and Gram-negative bacteria. Ampicillin, a beta-lactam antibiotic, primarily targets Gram-positive bacteria but also some Gram-negative strains. Amphotericin B is an antifungal drug often used for serious systemic fungal infections and is one of the effective treatments for fungal infections caused by Aspergillus sp. Ketoconazole is an antifungal agent used to inhibit the growth of Candida species.
`O=C(O)C1CSC(=S)N1` (centres unmarked) [Compound 3, 2-Thioxothiazolidine-4-carboxylic Acid] showed an MMC of 5 mg/mL.

Same assay, conditions: Bacillus subtilis, ATCC6633; B. subtilis ATCC 6633; compounds 1–8; read-out: MIC
Work on `O=C(O)C1CSC(=S)N1` (centres unmarked) [Compound 3, 2-Thioxothiazolidine-4-carboxylic Acid] yielded an MIC of 2500 µg/mL (≈ 15.3 mM).

Tested on: B. cereus
Assay: Microdilution MIC/MMC with resazurin
Format: cell-based, Bacillus cereus
Conditions: B. cereus; compounds 1–8
Description: as §1, §2, §3, §4, §5
Compound `O=C(O)C1CSC(=S)N1` (centres unmarked) [Compound 3, 2-Thioxothiazolidine-4-carboxylic Acid] has an MMC of 2.5 mg/mL.

Same assay, conditions: Bacillus cereus; B. cereus; compounds 1–8; read-out: MIC
In the case of `O=C(O)C1CSC(=S)N1` (centres unmarked) [Compound 3, 2-Thioxothiazolidine-4-carboxylic Acid], the MIC is reported as 2500 µg/mL (≈ 15.3 mM).

Tested on: B. pumilus NCTC 8241
Assay: Microdilution MIC/MMC with resazurin
Format: cell-based, Bacillus pumilus
Conditions: B. pumilus NCTC 8241; compounds 1–8
Description: as §1, §2, §3, §4, §5
In the case of `O=C(O)C1CSC(=S)N1` (centres unmarked) [Compound 3, 2-Thioxothiazolidine-4-carboxylic Acid], the MMC is reported as 0.625 mg/mL.

Same assay, conditions: Bacillus pumilus, NCTC8241; B. pumilus NCTC 8241; compounds 1–8; read-out: MIC
`O=C(O)C1CSC(=S)N1` (centres unmarked) [Compound 3, 2-Thioxothiazolidine-4-carboxylic Acid] showed an MIC of 625 µg/mL (≈ 3.83 mM).

Tested on: S. aureus ATCC 25923
Assay: Microdilution MIC/MMC with resazurin
Format: cell-based, Staphylococcus aureus
Conditions: S. aureus ATCC 25923; compounds 1–8
Description: as §1, §2, §3, §4, §5
Work on `O=C(O)C1CSC(=S)N1` (centres unmarked) [Compound 3, 2-Thioxothiazolidine-4-carboxylic Acid] yielded an MMC of 0.625 mg/mL.

Same assay, conditions: Staphylococcus aureus, ATCC25923; S. aureus ATCC 25923; compounds 1–8; read-out: MIC
`O=C(O)C1CSC(=S)N1` (centres unmarked) [Compound 3, 2-Thioxothiazolidine-4-carboxylic Acid] gave an MIC of 625 µg/mL (≈ 3.83 mM).

Tested on: S. aureus
Assay: Microdilution MIC/MMC with resazurin
Format: cell-based, Staphylococcus aureus
Conditions: S. aureus isolate; compounds 1–8
Description: as §1, §2, §3, §4, §5
With `O=C(O)C1CSC(=S)N1` (centres unmarked) [Compound 3, 2-Thioxothiazolidine-4-carboxylic Acid] the MMC was 0.312 mg/mL.

Same assay, conditions: Staphylococcus aureus; S. aureus isolate; compounds 1–8; read-out: MIC
`O=C(O)C1CSC(=S)N1` (centres unmarked) [Compound 3, 2-Thioxothiazolidine-4-carboxylic Acid] showed an MIC of 156 µg/mL (≈ 0.956 mM).

Tested on: E. coli ATCC 25922
Assay: Microdilution MIC/MMC with resazurin
Format: cell-based, Escherichia coli
Conditions: E. coli ATCC 25922; compounds 1–8
Description: as §1, §2, §3, §4, §5
Compound `O=C(O)C1CSC(=S)N1` (centres unmarked) [Compound 3, 2-Thioxothiazolidine-4-carboxylic Acid] has an MMC of 1.25 mg/mL.

Same assay, conditions: Escherichia coli, ATCC25922; E. coli ATCC 25922; compounds 1–8; read-out: MIC
In the case of `O=C(O)C1CSC(=S)N1` (centres unmarked) [Compound 3, 2-Thioxothiazolidine-4-carboxylic Acid], the MIC is reported as 625 µg/mL (≈ 3.83 mM).

Tested on: E. coli
Assay: Microdilution MIC/MMC with resazurin
Format: cell-based, Escherichia coli
Conditions: E. coli isolate; compounds 1–8
Description: as §1, §2, §3, §4, §5
Work on `O=C(O)C1CSC(=S)N1` (centres unmarked) [Compound 3, 2-Thioxothiazolidine-4-carboxylic Acid] yielded an MMC of 5 mg/mL.

Same assay, conditions: Escherichia coli; E. coli isolate; compounds 1–8; read-out: MIC
Compound `O=C(O)C1CSC(=S)N1` (centres unmarked) [Compound 3, 2-Thioxothiazolidine-4-carboxylic Acid] has an MIC of 1250 µg/mL (≈ 7.66 mM).

Tested on: P. mirabilis
Assay: Microdilution MIC/MMC with resazurin
Format: cell-based, Proteus mirabilis
Conditions: P. mirabilis; compounds 1–8
Description: as §1, §2, §3, §4, §5
For `O=C(O)C1CSC(=S)N1` (centres unmarked) [Compound 3, 2-Thioxothiazolidine-4-carboxylic Acid], the MMC was 2.5 mg/mL.

Same assay, conditions: Proteus mirabilis; P. mirabilis; compounds 1–8; read-out: MIC
`O=C(O)C1CSC(=S)N1` (centres unmarked) [Compound 3, 2-Thioxothiazolidine-4-carboxylic Acid] gave an MIC of 2500 µg/mL (≈ 15.3 mM).

Tested on: S. enterica
Assay: Microdilution MIC/MMC with resazurin
Format: cell-based, Salmonella enterica
Conditions: Salmonella enterica, compounds 1–8
Description: as §1, §2, §3, §4, §5
With `O=C(O)C1CSC(=S)N1` (centres unmarked) [Compound 3, 2-Thioxothiazolidine-4-carboxylic Acid] the MIC was 2500 µg/mL (≈ 15.3 mM).

Same assay, conditions: compounds 1–8
`O=C(O)C1CSC(=S)N1` (centres unmarked) [Compound 3, 2-Thioxothiazolidine-4-carboxylic Acid] showed an MMC of 2.5 mg/mL.

Tested on: K. pneumoniae
Assay: Microdilution MIC/MMC with resazurin
Format: cell-based, Klebsiella pneumoniae
Conditions: K. pneumoniae; compounds 1–8
Description: as §1, §2, §3, §4, §5
Work on `O=C(O)C1CSC(=S)N1` (centres unmarked) [Compound 3, 2-Thioxothiazolidine-4-carboxylic Acid] yielded an MMC of 2.5 mg/mL.

Same assay, conditions: Klebsiella pneumoniae; K. pneumoniae; compounds 1–8; read-out: MIC
Compound `O=C(O)C1CSC(=S)N1` (centres unmarked) [Compound 3, 2-Thioxothiazolidine-4-carboxylic Acid] has an MIC of 2500 µg/mL (≈ 15.3 mM).

Tested on: T. viride ATCC 13233
Assay: Microdilution MIC/MMC
Format: cell-based, Trichoderma viride
Conditions: T. viride ATCC 13233; compounds 1–8
Description: as §1, §2, §3, §4, §5
Work on `O=C(O)C1CSC(=S)N1` (centres unmarked) [Compound 3, 2-Thioxothiazolidine-4-carboxylic Acid] yielded an MMC of 5 mg/mL.

Same assay, conditions: Trichoderma viride, ATCC13233; T. viride ATCC 13233; compounds 1–8; read-out: MIC
In the case of `O=C(O)C1CSC(=S)N1` (centres unmarked) [Compound 3, 2-Thioxothiazolidine-4-carboxylic Acid], the MIC is reported as 2500 µg/mL (≈ 15.3 mM).

Tested on: A. flavus ATCC 9170
Assay: Microdilution MIC/MMC
Format: cell-based, Aspergillus flavus
Conditions: A. flavus ATCC 9170; compounds 1–8
Description: as §1, §2, §3, §4, §5
In the case of `O=C(O)C1CSC(=S)N1` (centres unmarked) [Compound 3, 2-Thioxothiazolidine-4-carboxylic Acid], the MMC is reported as 5 mg/mL.

Same assay, conditions: Aspergillus flavus, ATCC9170; A. flavus ATCC 9170; compounds 1–8; read-out: MIC
`O=C(O)C1CSC(=S)N1` (centres unmarked) [Compound 3, 2-Thioxothiazolidine-4-carboxylic Acid] gave an MIC of 5000 µg/mL (≈ 30.6 mM).

Tested on: F. solani ATCC 11712
Assay: Microdilution MIC/MMC
Format: cell-based, Fusarium solani
Conditions: F. solani ATCC 11712; compounds 1–8
Description: as §1, §2, §3, §4, §5
Work on `O=C(O)C1CSC(=S)N1` (centres unmarked) [Compound 3, 2-Thioxothiazolidine-4-carboxylic Acid] yielded an MMC of 0.625 mg/mL.

Same assay, conditions: Fusarium solani, ATCC11712; F. solani ATCC 11712; compounds 1–8; read-out: MIC
`O=C(O)C1CSC(=S)N1` (centres unmarked) [Compound 3, 2-Thioxothiazolidine-4-carboxylic Acid] showed an MIC of 625 µg/mL (≈ 3.83 mM).

Tested on: not listed separately
Assay: ABTS radical scavenging assay
Conditions: 25 µM; mean ± SD
Description: The ABTS radical cation solution was prepared following the previously described protocol. Different concentrations of the analyzed samples were prepared in DMSO. The test samples were prepared following the specified procedure: 20 µL of sample was combined with 980 µL of methanol, followed by the addition of 1000 µL of ABTS solution. Absorbance was measured at 734 nm. All measurements were performed in triplicate.
In the case of `O=C(O)C1CSC(=S)N1` (centres unmarked) [Compound 3, 2-Thioxothiazolidine-4-carboxylic Acid], the “ABTS Scavenging Ability” value is reported as 1.2 ± 0.3%.

Same assay, conditions: 50 µM; mean ± SD
With `O=C(O)C1CSC(=S)N1` (centres unmarked) [Compound 3, 2-Thioxothiazolidine-4-carboxylic Acid] the “ABTS Scavenging Ability” value was 1.9 ± 1.2%.

Same assay, conditions: 100 µM; mean ± SD
With `O=C(O)C1CSC(=S)N1` (centres unmarked) [Compound 3, 2-Thioxothiazolidine-4-carboxylic Acid] the “ABTS Scavenging Ability” value was 2.6 ± 0.7%.
